Reference: patent US20240246977A1, “DEGRADATION OF BRUTON'S TYROSINE KINASE (BTK) BY CONJUGATION OF BTK INHIBITORS WITH E3 LIGASE LIGAND AND METHOD OF USE” (BeiGene Switzerland GmbH, priority 2021, published 2024)

Experiments:
BTK = BTK (Homo sapiens, UniProt Q06187); test: BTK cell degradation in TMD-8 cells, HTRF assay; assay type: cell-based; set-up: endogenous in cells; host or cells: TMD-8 cells; details: 6 h treatment, IC50 (DC50) of BTK degradation
Outline: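 BTK levels read by HTRF in lysates of TMD-8 cells exposed to compounds for 6 h, eight concentrations at 6-fold steps in 0.2% DMSO. Percent degradation versus DMSO and low controls was fitted with a four-parameter equation to give DC50; Dmax is maximal degradation.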

HEK-293 cells = test: HEK-293 cytotoxicity detection (CellTiter-Glo); assay type: cell-based; details: Homo sapiens, 72 h, 72 h incubation, CellTiter-Glo luminescence, read-out: HEK293
Outline: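 HEK-293 cells exposed 72 h to 8 compounds doses (4-fold dilutions, top stock 5 mM at 500×) in 0.2% DMSO. Viability by CellTiter-Glo luminescence; inhibition normalised to DMSO high control and low control, IC50 from four-parameter curve fit.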

Sequence of BTK (Q06187 whole entry): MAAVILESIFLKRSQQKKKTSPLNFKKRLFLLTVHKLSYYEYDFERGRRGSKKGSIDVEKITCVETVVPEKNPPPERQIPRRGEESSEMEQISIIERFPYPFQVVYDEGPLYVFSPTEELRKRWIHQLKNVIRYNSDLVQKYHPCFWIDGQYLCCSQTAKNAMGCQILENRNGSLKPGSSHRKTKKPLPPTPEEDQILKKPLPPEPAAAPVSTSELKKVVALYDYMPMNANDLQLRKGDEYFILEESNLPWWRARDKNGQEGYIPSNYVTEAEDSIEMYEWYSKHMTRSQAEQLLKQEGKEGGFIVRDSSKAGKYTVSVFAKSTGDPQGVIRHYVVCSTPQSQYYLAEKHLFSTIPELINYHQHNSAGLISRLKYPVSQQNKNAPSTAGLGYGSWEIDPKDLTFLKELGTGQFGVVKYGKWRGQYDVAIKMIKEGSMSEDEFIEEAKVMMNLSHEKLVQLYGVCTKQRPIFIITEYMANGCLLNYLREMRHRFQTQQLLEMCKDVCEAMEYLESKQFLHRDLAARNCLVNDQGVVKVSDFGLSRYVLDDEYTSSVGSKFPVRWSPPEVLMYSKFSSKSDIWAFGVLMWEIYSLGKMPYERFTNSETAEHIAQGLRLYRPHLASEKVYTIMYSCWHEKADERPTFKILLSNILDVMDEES

Structure (SMILES): COc1cc(F)c(F)cc1C(=O)NCc1ccc(-c2nn3c(c2C(N)=O)Nc2ccc(N4CCN(CC5CCN(c6ccc(N7CCC(=O)NC7=O)cc6)CC5)CC4)cc2CC3)cc1C [Example C33, 2-(4-((4,5-difluoro-2-methoxybenzamido)methyl)-3-methylphenyl)-7-(4-((1-(4-(2,4-dioxotetrahydropyrimidin-1(2H)-yl)phenyl)piperidin-4-yl)methyl)piperazin-1-yl)-9,10-dihydro-4H-benzo[d]pyrazolo[1,5-a][1,3]diazepine-3-carboxamide]
- DC50 (BTK): 9.19 nM
- IC50 (HEK-293 cells): > 10000 nM

Structure (SMILES): Cc1cc(-c2nn3c(c2C(N)=O)Nc2ccc(N4CCN(CC5CCN(c6ccc(N7CCC(=O)NC7=O)cc6)CC5)CC4)cc2CC3)cc(C)c1C(=O)Nc1cc(C(F)(F)F)ccn1 [Example B7, 2-(3,5-dimethyl-4-((4-(trifluoromethyl)pyridin-2-yl)carbamoyl)phenyl)-7-(4-((1-(4-(2,4-dioxotetrahydropyrimidin-1(2H)-yl)phenyl)piperidin-4-yl)methyl)piperazin-1-yl)-9,10-dihydro-4H-benzo[d]pyrazolo[1,5-a][1,3]diazepine-3-carboxamide]
- DC50 (BTK): 5.37 nM
- IC50 (HEK-293 cells): > 10000 nM

Structure (SMILES): COc1ccc2ccccc2c1C(=O)NCc1ccc(-c2nn3c(c2C(N)=O)Nc2ccc(N4CCN(CC5CCN(c6ccc(N7CCC(=O)NC7=O)cc6)CC5)CC4)cc2CC3)cc1C [Example C10, 7-(4-((1-(4-(2,4-dioxotetrahydropyrimidin-1(2H)-yl)phenyl)piperidin-4-yl)methyl)piperazin-1-yl)-2-(4-((2-methoxy-1-naphthamido)methyl)-3-methylphenyl)-9,10-dihydro-4H-benzo[d]pyrazolo[1,5-a][1,3]diazepine-3-carboxamide]
- DC50 (BTK): 10.1 nM
- IC50 (HEK-293 cells): > 10000 nM

Structure (SMILES): Cc1c(C(=O)Nc2ccc3[nH]ccc3n2)ccc(-c2nn3c(c2C(N)=O)Nc2ccc(N4CCN(CC5CCN(c6ccc(N7CCC(=O)NC7=O)cc6)CC5)CC4)cc2CC3)c1F [Example B45, 2-(4-((1H-pyrrolo[3,2-b]pyridin-5-yl)carbamoyl)-2-fluoro-3-methylphenyl)-7-(4-((1-(4-(2,4-dioxotetrahydropyrimidin-1(2H)-yl)phenyl)piperidin-4-yl)methyl)piperazin-1-yl)-9,10-dihydro-4H-benzo[d]pyrazolo[1,5-a][1,3]diazepine-3-carboxamide]
- DC50 (BTK): 1.69 nM
- IC50 (HEK-293 cells): > 10000 nM

Structure (SMILES): COc1c(F)cccc1C(=O)NCc1ccc(-c2nn3c(c2C(N)=O)Nc2ccc(N4CCN(CC5CCN(c6ccc(N7CCC(=O)NC7=O)cc6)CC5)CC4)cc2CC3)cc1C [Example C40, 7-(4-((1-(4-(2,4-dioxotetrahydropyrimidin-1(2H)-yl)phenyl)piperidin-4-yl)methyl)piperazin-1-yl)-2-(4-((3-fluoro-2-methoxybenzamido)methyl)-3-methylphenyl)-9,10-dihydro-4H-benzo[d]pyrazolo[1,5-a][1,3]diazepine-3-carboxamide]
- DC50 (BTK): 10.5 nM
- IC50 (HEK-293 cells): > 10000 nM

Structure (SMILES): NC(=O)c1c(-c2ccc(Oc3ccccc3)cc2)nn2c1Nc1cc(NC(=O)C3CCN(CC4CCN(c5ccc6c(c5)C(=O)N(C5CCC(=O)NC5=O)C6=O)CC4)CC3)ccc1CC2 (centres unmarked) [Example A18, 6-(1-((1-(2-(2,6-dioxopiperidin-3-yl)-1,3-dioxoisoindolin-5-yl)piperidin-4-yl)methyl)piperidine-4-carboxamido)-2-(4-phenoxyphenyl)-9,10-dihydro-4H-benzo[d]pyrazolo[1,5-a][1,3]diazepine-3-carboxamide]
- DC50 (BTK): 9.62 nM
- IC50 (HEK-293 cells): 2510 nM

Structure (SMILES): COc1ccc(C)cc1C(=O)NCc1ccc(-c2nn3c(c2C(N)=O)Nc2ccc(N4CCN(CC5CCN(c6ccc(N7CCC(=O)NC7=O)cc6)CC5)CC4)cc2CC3)cc1C [Example C39, 7-(4-((1-(4-(2,4-dioxotetrahydropyrimidin-1(2H)-yl)phenyl)piperidin-4-yl)methyl)piperazin-1-yl)-2-(4-((2-methoxy-5-methylbenzamido)methyl)-3-methylphenyl)-9,10-dihydro-4H-benzo[d]pyrazolo[1,5-a][1,3]diazepine-3-carboxamide]
- DC50 (BTK): 8.52 nM
- IC50 (HEK-293 cells): > 10000 nM
